In ChEMBL document CHEMBL4311957, “Recent advances in natural antifungal flavonoids and their derivatives” (Bioorg Med Chem Lett, 2019):
Converted amounts (≈) assume the structure as drawn.

Columns and labels:
Cryptococcus neoformans [1] = test: Antifungal activity against Cryptococcus neoformans after 48 hrs by broth micro dilution method; format: functional
Candida albicans [2] = test: Antifungal activity against Candida albicans after 48 hrs by broth micro dilution method; format: functional
Candida parapsilosis [3] = test: Antifungal activity against Candida parapsilosis after 48 hrs by broth micro dilution method; format: functional; details: Lodderomyces parapsilosis
Candida albicans [4] = test: Antifungal activity against Candida albicans; format: functional, organism-based
Cryptococcus neoformans [5] = test: Antifungal activity against Cryptococcus neoformans; format: functional
Trichophyton rubrum [6] = test: Antifungal activity against Trichophyton rubrum NBRC 5467 by microdilution method; format: functional
Candida parapsilosis [7] = test: Antifungal activity against Candida parapsilosis ATCC 22014; format: functional; details: Lodderomyces parapsilosis
Nakaseomyces glabratus [8] = test: Antifungal activity against Candida glabrata 493 by microdilution method; format: functional
Nakaseomyces glabratus [9] = test: Antifungal activity against Candida glabrata 507 by microdilution method; format: functional
Nakaseomyces glabratus [10] = test: Antifungal activity against Candida glabrata 587 by microdilution method; format: functional
Pichia kudriavzevii [11] = test: Antifungal activity against Candida krusei ATCC 6258; format: functional
Candida albicans [12] = test: Antifungal activity against Candida albicans 498 by microdilution method; format: functional
[13] = system: Trichophyton mentagrophytes; test: Antifungal activity against Trichophyton mentagrophytes IFM 46027 by microdilution method; format: functional
Nakaseomyces glabratus [14] = test: Antifungal activity against Candida glabrata 510 by microdilution method; format: functional
Aspergillus fumigatus = test: Antifungal activity against Aspergillus fumigatus NBRC 4400 by microdilution method; format: functional
Candida albicans [15] = test: Antifungal activity against Candida albicans 53 by microdilution method; format: functional
Nakaseomyces glabratus [16] = test: Antifungal activity against Candida glabrata 531 by microdilution method; format: functional
Candida parapsilosis [17] = test: Antifungal activity against Candida parapsilosis 90/2224; format: functional; details: Lodderomyces parapsilosis
Nakaseomyces glabratus [18] = test: Antifungal activity against Candida glabrata 482 by microdilution method; format: functional
Pichia kudriavzevii [19] = test: Antifungal activity against Candida krusei CK25; format: functional
Candida albicans [20] = test: Antifungal activity against Candida albicans ATCC 10231 by microdilution method; format: functional
Candida albicans [21] = test: Antifungal activity against Candida albicans 501 by microdilution method; format: functional
Nakaseomyces glabratus [22] = test: Antifungal activity against Candida glabrata WT-5; format: functional
Nakaseomyces glabratus [23] = test: Antifungal activity against Candida glabrata ATCC 90030; format: functional
Candida parapsilosis [24] = test: Antifungal activity against Candida parapsilosis 96 by microdilution method; format: functional; details: Lodderomyces parapsilosis
Candida tropicalis [25] = test: Antifungal activity against Candida tropicalis 166 by microdilution method; format: functional
Candida albicans [26] = test: Antifungal activity against Candida albicans NBRC 1385 by microdilution method; format: functional
Trichophyton rubrum [27] = test: Antifungal activity against Trichophyton rubrum; format: functional
Candida tropicalis [28] = test: Antifungal activity against FLC-resistant Candida tropicalis in presence of FLC; format: functional

C[C@@H]1O[C@@H](OC[C@H]2O[C@@H](Oc3c(-c4ccc(O)c(O)c4)oc4cc(O)cc(O)c4c3=O)[C@H](O)[C@@H](O)[C@@H]2O)[C@H](O)[C@H](O)[C@H]1O [RUTIN]
MIC (Cryptococcus neoformans [1]): > 256 µg/mL
MIC (Candida albicans [2]): > 256 µg/mL
MIC (Candida parapsilosis [3]): > 256 µg/mL

CC(C)=CCc1c(O)ccc(C(=O)/C=C/c2ccc(O)cc2)c1O [ISOBAVACHALCONE]
MIC50 (Candida albicans [4]): 3 µg/mL (≈ 9.25 µM)
MIC50 (Cryptococcus neoformans [5]): 7 µg/mL (≈ 21.6 µM)

O=c1cc(-c2ccccc2)oc2ccccc12 [FLAVONE]
MIC (Trichophyton rubrum [6]): 120 µM (≈ 26.7 µg/mL)
MIC (Candida parapsilosis [7]): 5.4 µg/mL (≈ 24.3 µM)
MIC (Nakaseomyces glabratus [8]): 62.5 µg/mL (≈ 281 µM)
MIC (Nakaseomyces glabratus [9]): 62.5 µg/mL (≈ 281 µM)
MIC (Nakaseomyces glabratus [10]): 62.5 µg/mL (≈ 281 µM)
MIC (Pichia kudriavzevii [11]): 2.7 µg/mL (≈ 12.1 µM)
MIC (Candida albicans [12]): > 83 µg/mL
MIC [13]: 60 µM (≈ 13.3 µg/mL)
MIC (Nakaseomyces glabratus [14]): 62.5 µg/mL (≈ 281 µM)
MIC (Aspergillus fumigatus): 230 µM (≈ 51.1 µg/mL)
MIC (Candida albicans [15]): > 83 µg/mL
MIC (Nakaseomyces glabratus [16]): 62.5 µg/mL (≈ 281 µM)
MIC (Candida parapsilosis [17]): 5.4 µg/mL (≈ 24.3 µM)
MIC (Nakaseomyces glabratus [18]): 62.5 µg/mL (≈ 281 µM)
MIC (Pichia kudriavzevii [19]): 2.7 µg/mL (≈ 12.1 µM)
MIC (Candida albicans [20]): > 83 µg/mL
MIC (Candida albicans [21]): > 83 µg/mL
MIC (Nakaseomyces glabratus [22]): 52.7 µg/mL (≈ 237 µM)
MIC (Nakaseomyces glabratus [23]): 52.7 µg/mL (≈ 237 µM)
MIC (Candida parapsilosis [24]): > 83 µg/mL
MIC50 (Candida parapsilosis [24]): 13 to 104 µg/mL (≈ 58.5 to 468 µM)
MIC (Candida tropicalis [25]): > 83 µg/mL
MIC50 (Candida tropicalis [25]): 13 to 104 µg/mL (≈ 58.5 to 468 µM)
MIC (Candida albicans [26]): 30 µM (≈ 6.67 µg/mL)

Nc1ccccc1C(=O)/C=C/c1ccc([N+](=O)[O-])cc1
MIC (Trichophyton rubrum [27]): 0.5 µg/mL

C=CC(C)(C)c1cc(/C=C/C(=O)c2ccc(O)cc2)c(OC)cc1O [LICOAGROCHACONE A]
MFC (Candida albicans [4]): 150 µM (≈ 50.8 µg/mL)
MIC (Candida albicans [4]): 62.4 to 150 µM (≈ 21.1 to 50.8 µg/mL)
MIC (Trichophyton rubrum [27]): 11.5 µM

O=c1c(O[C@@H]2O[C@H](CO)[C@H](O)[C@H](O)[C@H]2O)c(-c2ccc(O)c(O)c2)oc2cc(O)cc(O)c12 [HYPEROSIDE]
MIC (Cryptococcus neoformans [1]): 128 µg/mL (≈ 276 µM)
MIC (Candida albicans [2]): 256 µg/mL (≈ 551 µM)
MIC (Candida parapsilosis [3]): 128 µg/mL (≈ 276 µM)

Oc1cc(O)c2c(c1)O[C@H](c1ccc(O)c(O)c1)[C@@H](O)C2 [CIANIDANOL]
MIC (Candida tropicalis [28]): ≤ 16 µg/mL
